Data: US9573907B2, “2, 4-pyrimidine derivatives and use thereof” (SNU R&DB FOUNDATION, priority 2009, dated 2017)

Experiments:
gp96 Y731F = target: T1, gp96 Y731F (Homo sapiens, UniProt P14625, Y735F); assay: Surface plasmon resonance, GPM1 binding to gp96 mutant Y731F
T1 construct: made in house; host or cells: Escherichia coli BL21 (DE3)
Procedure: (§1) Human gp96 was expressed as His tag fusion protein in Escherichia coli BL21 (DE3) and purified by nickel affinity chromatography. His-tagged human gp96 was immobilized onto CM5 sensor chips using standard amine coupling2. PBS was used as a running buffer. The carboxymethyl dextran surface within one side of the flow cell was activated with a 7-min injection of a 1:1 ratio of 0.4M EDC and 0.1M NHS. The protein was coupled to the surface with a 7-min injection of gp96 diluted in 10 mM sodium acetate, pH 3.7. Remaining activated groups were blocked with a 7-min injection of 1.0M ethanolamine, pH 8.5. GPM1 compound was dissolved directly in the PBS running buffer containing 1% DMSO and injected at a flow rate of 20 μl/min at 25° C. and the binding was determined by the change in resonance units (RU). The compound concentration varied from 10 nM to 25 μM and each concentration was tested at least three times. All of the bound complexes dissociated back to baseline within a reasonable time frame. Therefore, no regeneration was required. Sensorgram was processed by subtracting the binding response recorded from the control surface, followed by subtracting an average of the buffer blank injections from the reaction spot. To determine kinetic rate constants, all data sets were fit to a simple 1:1 binding with drifting baseline model using BIAevaluation program.
(§2) The present inventors compared the dose-dependent effect of GPM1 and NC1 on the interaction of gp96 and AIMP1 using ELISA. […] The present inventors monitored the binding kinetics of GPM1 to gp96 or AIMP1 by surface plasmon resonance (SPR) using BIAcore 3000. […] To further define the GPM1 binding region of gp96 (Han, J. M., Park, S. G., Liu, B., Park, B. J., Kim, J. Y., Jin, C. H., Song, Y. W., Li, Z. & Kim, S. Am. J. Pathol. 170, 2042-2054 (2007)), the present inventors introduced point mutations at L707, V706, V712, L713, F714, Y731 and M738 that are located within AIMP1 binding region of gp96 and monitored how the mutations at these sites would affect the binding of GPM1 to gp96 using SPR method.

gp96 M738L = target: T2, gp96 M738L (Homo sapiens, UniProt P14625, M742L); assay: Surface plasmon resonance, GPM1 binding to gp96 mutant M738L
T2 construct: made in house; host or cells: Escherichia coli BL21 (DE3)
Procedure: as §1, §2

NZB/W F1 mouse = assay: Survival rate of a lupus animal model; type: in vivo; settings: 30 mg/kg intraperitoneally once a day, 25-week aged male mice
Procedure: An NZB/W F1 mouse is a lupus animal model showing a voluntary lupus symptom. On the animal model, the effect of 2,4-pyrimidine derivatives was tested.
Each group included 10, 25-week aged male NZB/W F1 mice. Each group was intraperiotneally administered with a control (5% DMSO solution) or a testing agent (2,4-pyrimidine derivative in a dose of 30 mg/kg) once a day. Except for mice which died by worsening of lupus symptoms, the ratio of surviving mice was analyzed.

T1 sequence (P14625 22-803 Y735F): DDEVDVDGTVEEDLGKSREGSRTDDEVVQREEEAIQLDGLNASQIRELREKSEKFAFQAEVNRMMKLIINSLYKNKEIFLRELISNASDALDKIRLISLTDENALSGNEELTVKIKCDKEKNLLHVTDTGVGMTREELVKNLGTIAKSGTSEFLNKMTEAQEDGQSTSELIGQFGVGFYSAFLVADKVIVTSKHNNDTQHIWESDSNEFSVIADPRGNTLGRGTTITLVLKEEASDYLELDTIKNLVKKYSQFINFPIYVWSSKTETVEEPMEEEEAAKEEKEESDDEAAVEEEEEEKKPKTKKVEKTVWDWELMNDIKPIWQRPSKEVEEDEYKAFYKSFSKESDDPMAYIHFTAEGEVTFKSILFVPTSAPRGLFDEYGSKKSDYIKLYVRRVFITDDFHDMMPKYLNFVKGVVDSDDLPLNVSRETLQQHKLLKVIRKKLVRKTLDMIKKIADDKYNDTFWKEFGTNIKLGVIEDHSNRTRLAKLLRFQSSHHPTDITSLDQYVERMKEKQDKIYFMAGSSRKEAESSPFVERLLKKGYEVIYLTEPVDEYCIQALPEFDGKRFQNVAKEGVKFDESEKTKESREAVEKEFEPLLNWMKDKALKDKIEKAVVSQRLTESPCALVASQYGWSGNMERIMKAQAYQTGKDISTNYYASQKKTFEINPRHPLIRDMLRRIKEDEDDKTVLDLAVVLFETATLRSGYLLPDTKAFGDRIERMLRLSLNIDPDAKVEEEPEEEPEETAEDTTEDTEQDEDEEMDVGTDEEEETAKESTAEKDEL
T2 sequence (P14625 22-803 M742L): as the sequence (P14625 22-803 Y735F) above, with F714Y, M721L counted along it

For `COC(=O)[C@@H](Oc1nc(OC)cc(OC)n1)C(C)C` [GPM1, (S)-methyl 2-(4,6-dimethoxypyrimidin-2-yloxy)-3-methylbutanoate], the Kd (gp96 Y731F) was 730 nM, the “koff (dissociation rate constant)” value (gp96 Y731F) was 0.0149 s⁻¹ and the kon (gp96 Y731F; read-out: Ka) was 20400 M⁻¹ s⁻¹. For the same compound, the Kd (gp96 M738L) was 210 nM, the “koff (dissociation rate constant)” value (gp96 M738L) was 0.0132 s⁻¹ and the kon (gp96 M738L; read-out: Ka) was 63000 M⁻¹ s⁻¹. For the same compound, the “ratio of mice which died by lupus” value (NZB/W F1 mouse) was “significantly reduced”.
